{"source": "patent US20220202774A1", "about": "“PHARMACEUTICAL COMPOSITION FOR PREVENTION OR TREATMENT OF SPINAL CORD INJURY OR SPINAL STENOSIS” (NEUROBIT SCIENCE CO., LTD., priority 2019, published 2022)", "key": {"[1]": {"test_system": "LPS-induced PGE2 production in RAW 264.7 (a murine macrophage cell line)", "experiment": "Inhibition of production of LPS-induced PGE2 by macrophage cell line", "assay_type": "cell-based", "settings": "Mus musculus", "protocol": "RAW 264.7 (a murine macrophage cell line) was obtained from Korea Cell Line Bank (KCLB). RAW 264.7 was cultured in Dulbecco's Modified Eagle Medium (DMEM) containing 10% fetal bovine serum (FBS), penicillin (100 units/mL), and streptomycin sulfate (100 μg/mL) at 37° C. and in a humidified atmosphere of 5% carbon dioxide in air.\nUsing DMEM, 1 mL each of RAW 264.7 with a concentration of 5×10^5 cells/mL was seeded in 24 wells. The seeded cells were left overnight, the medium was changed, and then the drug was treated at an appropriate concentration. After incubating for 1 hour, LPS was treated at 1 μg/ml, followed by incubation for 24 hours (or an appropriate length of time). The supernatant was taken and diluted 5-fold. 150 μl of an assay buffer was added to Non-Specific Binding (NSB) wells, and 100 μl of the assay buffer was added to zero standard (Bo) wells. 100 μl of standard sample and 50 μl of PGE2 conjugates were added to the remaining wells (excluding the NSB wells). 50 μl of PGE2 antibody solution was added to the wells and shaken for 2 hours. The contents of each well were suctioned off, and the wells were washed 5 times with wash buffer. 200 μl of para-nitrophenyl phosphate (pNPP) substrate was added to all wells. After storing the wells at room temperature (in a clean bench) for 1 hour, 50 μl of a stop solution was added, and absorbance was measured at 405 nm. […]"}, "[2]": {"test_system": "RAW 264.7 (the murine macrophage cell line)", "experiment": "Cytotoxicity of macrophages (MTT assay)", "assay_type": "cell-based", "settings": "Mus musculus, RAW264.7; RAW 264.7, LPS 1 μg/ml, 24 hours; read-out: Cell viability(μM) (IC50, MTT assay)", "protocol": "The physiological activity of 3-(4-chlorophenyl)-4-(4-aminosulfonyl-phenyl)-1-methyl-1H-pyrrole-2,5-dione prepared according to Example 2 has been expressed in terms of IC50, which is the concentration at which there is 50% inhibition of the activity of an enzyme. On the other hand, for the cytotoxicity of the compounds according to the present invention, cell viability values (IC50) were measured using the MTT assay.\nRAW 264.7 (the murine macrophage cell line) was cultured in DMEM containing 10% FBS, penicillin (100 units/ml), and streptomycin sulfate (100 μg/ml) at 37° C. and in a humidified atmosphere of 5% carbon dioxide in air. Cells were collected using centrifugation and a scraper. The cells were added at a concentration of 1×10^5 cells/well to wells of a 96-well plate containing Roswell Park Memorial Institute (RPMI) 1640 medium, which includes 10% FBS. 3 beta, 4 beta-epoxy-8a-isobutyryloxyguaia-1(10),11, (13)-diene-12.6a-olide was dissolved in methylsulfoxide (DMSO) as a solvent. […] After one night, samples and LPS (1 μg/ml) were added to the wells, and the plate was incubated for 24 hours. […]"}, "[3]": {"test_system": "chronic mechanical allodynia-induced rats", "experiment": "Paw withdrawal threshold (von Frey) in chronic mechanical allodynia-induced rats after compression of the cauda equina", "assay_type": "in vivo, Sprague-Dawley rats", "protocol": "For experiments related to the present invention, a total of 167 male Sprague-Dawley rats (250 to 270 g, Samtako, Osan, Korea) were used. The rats were kept in an environment of room temperature (23±1° C.) and 60±10% humidity under a 12-hour light/12-hour dark cycle (light on from 07:30 to 19:30) and given free access to water and food. The rats were housed individually in cages (410×282×153 mm, clear polycarbonate) lined with aspen shaving bedding and fed a commercial diet (5L79, PMI Nutrition International, St Louis, Mo.) and a commercial standard feed (Lab Diet 5L791 Purina Mills, Richmond, Ind.). All animal experiments were performed in accordance with the guidelines of the Animal Protection Committee of Kyung Hee University (Permission No. KHUASP(SE)-15-006) and in compliance with the ethical guidelines of the International Association for the Study of Pain.\nMore specifically, the rats were anesthetized by administering chloral hydrate (500 mg/kg) as an intraperitoneal injection, the backside of each rat was shaved, and the L4 to S2 vertebral plates were exposed.\nNext, the ligamenta flava between L4 and L5 were removed. […]\nMechanical allodynia was assessed by detecting responses to stimulation with calibrated von Frey filaments and evaluated in terms of paw withdrawal threshold (PWT). […]"}, "TNF-α mRNA": {"test_system": "TNF-α mRNA", "experiment": "RT-PCR of TNF-α mRNA in cauda equina of chronic mechanical allodynia-induced rats", "assay_type": "in vivo, Sprague-Dawley rats", "settings": "30 minutes after administering", "protocol": "(§1) Only rats with a weight in the range of 350 to 380 g and in which chronic mechanical allodynia (2.5-4.0 g) was induced on the 28th day of compression of the cauda equina were selected as the experimental group. The rats were randomly assigned to three experimental groups treated with a vehicle, celecoxib, or the compound according to the present invention.\n(§2) Celecoxib (Sigma, St. Louis, Mo.) or the compound according to the present invention was dissolved in methyl pyrrolidone:Tween-80:saline (1:1:8, 100 μl) and injected intraperitoneally at a dose of 2, 5, or 10 mg/kg. The vehicle group was injected with 1-methyl-2-pyrrolidone (1-methyl-2-pyrrolidone:Tween-80:saline (1:1:8)) at an equal dose.\n(§3) At the time of the peak effect (30 minutes after injection of drug), the rats were anesthetized by injecting chloral hydrate (500 mg/kg) and perfused with 0.1 M PBS (pH 7.4), followed by perfusion with a solution containing 4% paraformaldehyde added to PBS.\n(§4) For analysis at the molecular level, the rats were perfused with 0.1 M PBS, and a 20 mm-thick section of the cauda equina with the site of injury at the center was isolated and kept frozen at −80° C. until use.\n(§5) RT-PCR of TNF-α, IL-1β, IL-6, iNOS, and GAPDH was performed. […]"}, "IL-6 mRNA": {"test_system": "IL-6 mRNA", "experiment": "RT-PCR of IL-6 mRNA in cauda equina of chronic mechanical allodynia-induced rats", "assay_type": "in vivo, Sprague-Dawley rats", "settings": "30 minutes after administering", "protocol": "as §1, §2, §3, §4, §5"}, "iNOS mRNA": {"test_system": "iNOS mRNA", "experiment": "RT-PCR of iNOS mRNA in cauda equina of chronic mechanical allodynia-induced rats", "assay_type": "in vivo, Sprague-Dawley rats", "settings": "30 minutes after administering", "protocol": "as §1, §2, §3, §4, §5"}, "IL-1β mRNA": {"test_system": "IL-1β mRNA", "experiment": "RT-PCR of IL-1β mRNA in cauda equina of chronic mechanical allodynia-induced rats", "assay_type": "in vivo, Sprague-Dawley rats", "protocol": "as §1, §2, §3, §4, §5"}, "PGE2": {"test_system": "PGE2", "experiment": "PGE2 level in cauda equina fibers by ELISA", "assay_type": "in vivo, Sprague-Dawley rats", "protocol": "as §1, §2, §4\nLevels of PEG2 in the cauda equina fibers were analyzed using a PEG2 ELISA kit (Monoclonal, Cayman Chemical Ann Arbor, Mich.) according to the manufacturer's instructions.\nAn experiment was performed using rats administered with celecoxib and the compound according to the present invention to confirm through RT-PCR whether production of inflammatory mediators is inhibited. Another experiment was performed to confirm through ELISA whether production of PGE2 is inhibited."}}, "note": "Read-outs that look alike come from different tables or passages of the source."}
{"molecule": "CN1C(=O)C(c2ccc(Cl)cc2)=C(c2ccc(S(N)(=O)=O)cc2)C1=O", "note": "[3-(4-chlorophenyl)-4-(4-aminosulfonyl-phenyl)-1-methyl-1H-pyrrole-2,5-dione]", "values": [{"measurement": "IC50", "setting": "[1]; RAW264.7, 24 h, RAW 264.7, LPS 1 μg/ml, 24 hours, read-out: IC50(μM) PGE2", "value": 0.0087, "unit": "µM"}, {"measurement": "IC50", "setting": "[1]; RAW264.7, RAW 264.7, LPS-induced, text/FIG. 2, read-out: IC50 value for inhibition of PGE2 production", "value": 0.00595, "unit": "µM"}, {"measurement": "IC50", "setting": "[2]", "value": "> 10", "unit": "µM"}, {"measurement": "PWT compared to the vehicle group", "setting": "[3]; 2, 5, 10 mg/kg intraperitoneal, 30 minutes after injecting", "value": "increased significantly in a dose-dependent manner"}, {"measurement": "duration of analgesic effect", "setting": "[3]; high dose, intraperitoneal", "value": 3, "unit": "h"}, {"measurement": "expression of TNF-α mRNA", "setting": "TNF-α mRNA", "value": "significantly reduced"}, {"measurement": "expression of IL-6 mRNA", "setting": "IL-6 mRNA", "value": "significantly reduced"}, {"measurement": "expression of iNOS mRNA", "setting": "iNOS mRNA", "value": "significantly reduced"}, {"measurement": "expression of IL-1β mRNA", "setting": "IL-1β mRNA", "value": "significantly reduced"}, {"measurement": "PGE2 production compared to the vehicle group", "setting": "PGE2", "value": "significantly reduced"}]}
